Source: patent US6693192B1, “Hypolipidemic and antioxidant morpholine derivatives” (Elpen S.A., priority 1999, dated 2004)
Marks after values point to notes of the source that are not given here.

System: hyperlipidemia induced by the Triton WR 1339 in rats
Assay: Hypolipidemic activity: inhibition of hyperlipidemia induced by Triton WR 1339 in rats
Type: in vivo, rat
Conditions: male Fischer rats, Triton WR 1339 200 mg/Kg i.p., dose 56 μmol/kg ip, plasma after 24 hours
Experimental: The hypocholesterolemic and hypolipidemic activity of the synthesised compounds was performed by the inhibition of the hyperlipidemia induced by the Triton WR 1339 in rats. Triton WR 1339 as an intraperitoneal (i.p.) injection acts due to induction of HMG-CoA reductase. […] After 24 hours, blood was taken from the celiac aorta and collected to heparinised tubes.

SMILES: CC(C)(Sc1cc(C(C)(C)C)c(O)c(C(C)(C)C)c1)Sc1cc(C(C)(C)C)c(O)c(C(C)(C)C)c1 [Probucol]
- Percent decrease compared to controls, LDL (plasma Low Density Lipoprotein): 18^NS %
- Percent decrease compared to controls, TC (plasma Total Cholesterol): 18* %
- Percent decrease compared to controls, TG (plasma Triglyceride): 11^NS %
